This is an account of results in patent US11932645B2, “Substituted pyrazolo[1,5-a]pyrimidines and their use in the treatment of medical disorders” (Bial—R&D Investments, S.A., priority 2014, dated 2024).

In the test the target is T1, glucocerebrosidase (Gcase) (Homo sapiens, UniProt P04062).
T1 sequence (P04062 40-536): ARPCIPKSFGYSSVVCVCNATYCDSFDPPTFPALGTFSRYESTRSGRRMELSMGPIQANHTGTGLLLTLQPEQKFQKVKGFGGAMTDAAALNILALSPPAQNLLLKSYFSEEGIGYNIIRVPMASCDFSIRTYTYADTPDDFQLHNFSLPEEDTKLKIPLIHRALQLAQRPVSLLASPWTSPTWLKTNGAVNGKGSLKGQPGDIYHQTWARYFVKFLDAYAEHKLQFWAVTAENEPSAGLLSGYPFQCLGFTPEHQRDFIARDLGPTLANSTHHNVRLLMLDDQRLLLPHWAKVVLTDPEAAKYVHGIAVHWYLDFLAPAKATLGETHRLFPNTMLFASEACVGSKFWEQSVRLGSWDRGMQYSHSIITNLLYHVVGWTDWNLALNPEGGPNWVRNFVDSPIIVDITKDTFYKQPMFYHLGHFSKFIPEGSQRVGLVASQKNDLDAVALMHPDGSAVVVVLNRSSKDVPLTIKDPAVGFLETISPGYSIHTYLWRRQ
In words: Glucocerebrosidase (Gcase) activation assay, 4-methylumbelliferyl-beta-D-glucopyranoside substrate, with saposin C. The test is classed as biochemical. The settings on record: 10 nM GCase, 100 nM saposin C, pH 4.7. The protocol: The ability of exemplary compounds to activate glucocerebrosidase (Gcase) was measured.
A 484 μL aliquot of a 1.0 mg/mL solution of phosphatidylserine (PS) (Sigma P7769) in chloroform was evaporated under a stream of nitrogen for 1 hour. The lipid film was dissolved over 4 minutes of vigorous vortexing in 40 mL of 176 mM K2HPO4/50 mM citric acid (pH 4.7) containing 7.5 μL of triton X-100, resulting in a mixed micellar preparation with a composition of 0.32 mM triton and 0.37 mol % PS. 4-Methylumbelliferyl-beta-D-glucopyranoside (ACROS-337025000) was dissolved in the micellar solution to a final concentration of 2 mM for use as the reaction substrate.
Test compounds were diluted to the desired concentrations with dimethylsulfoxide (DMSO) from 10 mM stocks, and 0.41 μL of the DMSO compound mixture was added to 100 μL of micellar solution containing 10 nM GCase and 100 nM saposin C (Enzo ALX-201-262-C050). Pre-incubation was allowed to occur for 30 minutes at room temperature, after which the reaction was initiated by combining 25 μL of substrate solution with 25 μL of compound/GCase/saposin mixture. The reaction proceeded for 15 minutes at room temperature and was stopped by adding 150 μL of 1M glycine, pH 12.5. The endpoint of the reaction was monitored by measuring fluorescence intensity (excitation: 365 nm; emission: 440 nm) on a SpectraMax i3 instrument (Molecular Devices). Test compounds were screened at 1.0 and 0.1 μM final concentration, and subsequent 8-point dose response curves were obtained using 3-fold dilutions from a maximum final concentration of 5 μM.
For experiments in which the test compound was used at a concentration of 1.0 μM, the symbol “+” indicates less than 30% Gcase activation; the symbol “++” indicates Gcase activation in the range of 30% up to 60%; and the symbol “+++” indicates Gcase activation greater than 60%. For experiments in which the test compound was used at a concentration of 0.1 μM, the symbol “*” indicates less than 10% Gcase activation; the symbol “**” indicates Gcase activation in the range of 10% up to 20%; and the symbol “***” indicates greater than 20% Gcase activation.

On to `C#Cc1ccc(NC(=O)c2cnn3c(C)cc(C)nc23)nc1` [III-1], for which the “Percent Gcase Activation 0.1 μM Test Compound” value was “* (less than 10% Gcase activation)” and the “Percent Gcase Activation 1 μM Test Compound” value is listed as “++ (Gcase activation in the range of 30% up to 60%)”.

With `C#Cc1ccc(NC(=O)c2cnn3c(C)cc(C)nc23)cn1` [III-2], the “Percent Gcase Activation 0.1 μM Test Compound” value was “* (less than 10% Gcase activation)” and the “Percent Gcase Activation 1 μM Test Compound” value is given as “+ (less than 30% Gcase activation)”.

For the compound `Cc1cc(C)n2ncc(C(=O)Nc3ccc(-c4ccccc4)cc3)c2n1` [III-3], the “Percent Gcase Activation 0.1 μM Test Compound” value was “*** (greater than 20% Gcase activation)” and the “Percent Gcase Activation 1 μM Test Compound” value is listed as “++ (Gcase activation in the range of 30% up to 60%)”.

As to `COCC#Cc1ccc(NC(=O)c2cnn3c(C)cc(C)nc23)cc1` [III-4], the “Percent Gcase Activation 0.1 μM Test Compound” value is “** (Gcase activation in the range of 10% up to 20%)” and the “Percent Gcase Activation 1 μM Test Compound” value was “+++ (Gcase activation greater than 60%)”.

As for `Cc1cc(C)n2ncc(C(=O)Nc3ccc(Oc4ccccc4)cc3)c2n1` [III-5], the “Percent Gcase Activation 0.1 μM Test Compound” value is recorded as “*** (greater than 20% Gcase activation)” and the “Percent Gcase Activation 1 μM Test Compound” value is “++ (Gcase activation in the range of 30% up to 60%)”.

With `Cc1cc(C)n2ncc(C(=O)Nc3ccc(-n4ccnc4)cc3)c2n1` [III-6], the “Percent Gcase Activation 0.1 μM Test Compound” value was “* (less than 10% Gcase activation)” and the “Percent Gcase Activation 1 μM Test Compound” value is “+ (less than 30% Gcase activation)”.

`Cc1cc(C)n2ncc(C(=O)Nc3ccc(-c4nccs4)cc3)c2n1` [III-7]: the “Percent Gcase Activation 0.1 μM Test Compound” value was “** (Gcase activation in the range of 10% up to 20%)” and the “Percent Gcase Activation 1 μM Test Compound” value is on record as “+++ (Gcase activation greater than 60%)”.

Take `C#Cc1ccc(NC(=O)c2cnn3c(C)cc(C)nc23)c(OC)c1` [III-8]: the “Percent Gcase Activation 0.1 μM Test Compound” value is “** (Gcase activation in the range of 10% up to 20%)” and the “Percent Gcase Activation 1 μM Test Compound” value is “++ (Gcase activation in the range of 30% up to 60%)”.

Take `Cc1cc(C)n2ncc(C(=O)Nc3ccc(-c4ccon4)cc3)c2n1` [III-9]: the “Percent Gcase Activation 0.1 μM Test Compound” value is “* (less than 10% Gcase activation)” and the “Percent Gcase Activation 1 μM Test Compound” value is listed as “+++ (Gcase activation greater than 60%)”.

On to `Cc1cc(C)n2ncc(C(=O)Nc3ccc(-c4cocn4)cc3)c2n1` [III-10], for which the “Percent Gcase Activation 0.1 μM Test Compound” value was “** (Gcase activation in the range of 10% up to 20%)” and the “Percent Gcase Activation 1 μM Test Compound” value is “+++ (Gcase activation greater than 60%)”.

As for `Cc1cc(C)n2ncc(C(=O)Nc3ccc(-c4ncco4)cc3)c2n1` [III-11], the “Percent Gcase Activation 0.1 μM Test Compound” value is given as “** (Gcase activation in the range of 10% up to 20%)” and the “Percent Gcase Activation 1 μM Test Compound” value was “+++ (Gcase activation greater than 60%)”.

With `Cc1cc(C)n2ncc(C(=O)Nc3cc(-c4ccccc4)on3)c2n1` [III-12], the “Percent Gcase Activation 0.1 μM Test Compound” value is on record as “* (less than 10% Gcase activation)” and the “Percent Gcase Activation 1 μM Test Compound” value is “+ (less than 30% Gcase activation)”.

Regarding `C#CC1CCC(NC(=O)c2cnn3c(C)cc(C)nc23)CC1` (stereo not shown) [III-13], the “Percent Gcase Activation 0.1 μM Test Compound” value is “* (less than 10% Gcase activation)” and the “Percent Gcase Activation 1 μM Test Compound” value was “+ (less than 30% Gcase activation)”.

As to `C#C[C@H]1CC[C@H](NC(=O)c2cnn3c(C)cc(C)nc23)CC1` [III-14], the “Percent Gcase Activation 0.1 μM Test Compound” value is reported as “* (less than 10% Gcase activation)” and the “Percent Gcase Activation 1 μM Test Compound” value is given as “+ (less than 30% Gcase activation)”.

Consider `C#C[C@H]1CC[C@@H](NC(=O)c2cnn3c(C)cc(C)nc23)CC1` [III-15], for which the “Percent Gcase Activation 0.1 μM Test Compound” value was “* (less than 10% Gcase activation)” and the “Percent Gcase Activation 1 μM Test Compound” value is “+ (less than 30% Gcase activation)”.

Turning to `Cc1cc(C)n2ncc(C(=O)Nc3ccc(-c4cnsc4)cc3)c2n1` [III-16], the “Percent Gcase Activation 0.1 μM Test Compound” value is listed as “** (Gcase activation in the range of 10% up to 20%)” and the “Percent Gcase Activation 1 μM Test Compound” value is given as “+++ (Gcase activation greater than 60%)”.

As for `Cc1cc(C)n2ncc(C(=O)Nc3ccc(-c4cnoc4)cc3)c2n1` [III-17], the “Percent Gcase Activation 0.1 μM Test Compound” value is given as “* (less than 10% Gcase activation)” and the “Percent Gcase Activation 1 μM Test Compound” value is “+ (less than 30% Gcase activation)”.

`Cc1cc(C)n2ncc(C(=O)Nc3cc(C4(C(F)(F)F)CC4)on3)c2n1` [III-18]: the “Percent Gcase Activation 0.1 μM Test Compound” value is given as “* (less than 10% Gcase activation)” and the “Percent Gcase Activation 1 μM Test Compound” value was “+ (less than 30% Gcase activation)”.

As for `Cc1cc(C)n2ncc(C(=O)Nc3ccc(-c4cocn4)nc3)c2n1` [III-19], the “Percent Gcase Activation 0.1 μM Test Compound” value is reported as “* (less than 10% Gcase activation)” and the “Percent Gcase Activation 1 μM Test Compound” value is “+ (less than 30% Gcase activation)”.

In the case of `Cc1cc(C)n2ncc(C(=O)Nc3ccc(-c4cccs4)nc3)c2n1` [III-20], the “Percent Gcase Activation 0.1 μM Test Compound” value was “*** (greater than 20% Gcase activation)” and the “Percent Gcase Activation 1 μM Test Compound” value is on record as “+++ (Gcase activation greater than 60%)”.

As to `Cc1cc(C)n2ncc(C(=O)Nc3ccc(-c4ccncc4)nc3)c2n1` [III-21], the “Percent Gcase Activation 0.1 μM Test Compound” value is “* (less than 10% Gcase activation)” and the “Percent Gcase Activation 1 μM Test Compound” value was “+ (less than 30% Gcase activation)”.

`Cc1cc(C)n2ncc(C(=O)Nc3ccc(-c4ccco4)nc3)c2n1` [III-22]: the “Percent Gcase Activation 0.1 μM Test Compound” value is reported as “* (less than 10% Gcase activation)” and the “Percent Gcase Activation 1 μM Test Compound” value is listed as “++ (Gcase activation in the range of 30% up to 60%)”.

Consider `Cc1cc(C)n2ncc(C(=O)Nc3ccc(-c4cnn(C)c4)nc3)c2n1` [III-23], for which the “Percent Gcase Activation 0.1 μM Test Compound” value is recorded as “* (less than 10% Gcase activation)” and the “Percent Gcase Activation 1 μM Test Compound” value is recorded as “+ (less than 30% Gcase activation)”.

For `Cc1cc(C)n2ncc(CNc3ccc(-c4cocn4)nc3)c2n1` [III-24], the “Percent Gcase Activation 0.1 μM Test Compound” value is on record as “* (less than 10% Gcase activation)” and the “Percent Gcase Activation 1 μM Test Compound” value is on record as “+ (less than 30% Gcase activation)”.

Turning to `Cc1ccn2ncc(CNc3ccc(-c4cocn4)cc3)c2n1` [III-25], the “Percent Gcase Activation 0.1 μM Test Compound” value is “* (less than 10% Gcase activation)” and the “Percent Gcase Activation 1 μM Test Compound” value is recorded as “+ (less than 30% Gcase activation)”.

In the case of `Cc1ccn2ncc(CNc3ccc(-c4ncco4)cc3)c2n1` [III-26], the “Percent Gcase Activation 0.1 μM Test Compound” value is “* (less than 10% Gcase activation)” and the “Percent Gcase Activation 1 μM Test Compound” value is “+ (less than 30% Gcase activation)”.

With `Cc1cc(C)n2ncc(C(=O)Nc3ccc(-c4cscn4)cc3)c2n1` [III-27], the “Percent Gcase Activation 0.1 μM Test Compound” value was “** (Gcase activation in the range of 10% up to 20%)” and the “Percent Gcase Activation 1 μM Test Compound” value is recorded as “+++ (Gcase activation greater than 60%)”.

Regarding `Cc1cc(C)n2ncc(C(=O)Nc3nc4ccccc4[nH]3)c2n1` [III-28], the “Percent Gcase Activation 0.1 μM Test Compound” value is given as “* (less than 10% Gcase activation)” and the “Percent Gcase Activation 1 μM Test Compound” value was “+ (less than 30% Gcase activation)”.

On to `COCC#Cc1ccc(NCc2cnn3c(C)cc(C)nc23)cc1` [III-29], for which the “Percent Gcase Activation 0.1 μM Test Compound” value was “* (less than 10% Gcase activation)” and the “Percent Gcase Activation 1 μM Test Compound” value was “+ (less than 30% Gcase activation)”.

For the compound `Cc1cc(C)n2ncc(C(=O)Nc3ccc(-c4ncc[nH]4)cc3)c2n1` [III-30], the “Percent Gcase Activation 0.1 μM Test Compound” value is “* (less than 10% Gcase activation)” and the “Percent Gcase Activation 1 μM Test Compound” value was “+ (less than 30% Gcase activation)”.

For `Cc1cc(C)n2ncc(C(=O)Nc3ccc(-c4cc[nH]n4)cc3)c2n1` [III-31], the “Percent Gcase Activation 0.1 μM Test Compound” value was “* (less than 10% Gcase activation)” and the “Percent Gcase Activation 1 μM Test Compound” value was “+ (less than 30% Gcase activation)”.

Consider `CCCCCOc1ccc(NC(=O)c2cnn3c(C)cc(C)nc23)cc1` [III-32], for which the “Percent Gcase Activation 0.1 μM Test Compound” value is “** (Gcase activation in the range of 10% up to 20%)” and the “Percent Gcase Activation 1 μM Test Compound” value is on record as “+++ (Gcase activation greater than 60%)”.
